According to patent US6551998B1, “Antimicrobial agents” (University of Louisville Research Foundation, Inc., priority 1999, dated 2003):
≈ marks a conversion by molar mass, not a printed value. Read-outs that look alike come from different tables or passages of the source. Square brackets hold non-standard residues; d marks the D form. Ends that are not written are not given here. 2Nal = N[C@@H](Cc1ccc2ccccc2c1)C(=O)O

Tests used:
[1] = tested on: Methicillin resistant Staphylococcus aureus (ATCC 33591); format: cell-based; conditions: for MRSA IC50: Table 4; for IC50 / MIC: ATCC 33591; for activity against MRSA (in words): gram-positive organism; for selectivity between MRSA and P. aeruginosa (in words): comparison of the MRSA and Ps A. IC50 of Table 4
Experimental: (§1) The antimicrobial compounds of the present invention were assayed using a standard microdilution assay against gram-positive bacteria Staphylococcus aureus (strain used: ATTC 29213) and methicillin-resistant strain used ATCC 33591) and the gram-negative bacteria Pseudomonas aeruginosa (strain used ATCC27853). The samples were assayed against 1-5×10^5 colony forming units, in Mueller-Hinton broth, at 37° C. The activity was determined following a 21 hour incubation. The IC50 values were calculated using sigmoidal curve fitting software. (Graphpad™, ISI Software, San Diego, Calif.) and correspond to the sample concentration which inhibits 50 percent of bacterial growth. The minimum inhibitory concenttration (MIC) is defined as the lowest concentration of sample at which no growth is detected by optical density between

[2] = tested on: Pseudomonas aeruginosa (ATCC27853); format: cell-based; conditions: for Ps A. IC50: Table 4; for activity against Pseudomonas aeruginosa (in words): gram negative organism
Experimental: as §1

Fusarium moniliforme = conditions: cited from earlier work
Fusarium oxysporum = conditions: cited from earlier work
[3] = Table 2, Mueller-Hinton broth, 37° C., 21 hour incubation, 50 percent inhibition of bacterial growth
[4] = Table 2, lowest concentration at which no growth is detected, 21 hour incubation

Row | Compound | MRSA IC50 [1] [µg/mL] | Ps A. IC50 [2] [µg/mL] | IC50 [1] [µg/mL] | MIC [1] [µg/mL] | other results
1 | 4-AMBψ[CH2NH]Lys-Ser-4-AMBψ[CH2NH]Leu-OH [Compound 38] | > 500 | > 500 | – | – | –
2 | 4-AMBψ[CH2NH]Lys-Ser-Pheψ[CH2NH]Leu-OH [Compound 37] | > 500 | 415 | – | – | –
3 | CC(C)C[C@H](NC[C@H](Cc1ccccc1)NC(=O)[C@H](CO)NC(=O)[C@H](CCCCN)NC[C@@H](N)Cc1ccc2ccccc2c1)C(=O)O [Compound 1, H-2-Nal ψ[CH2NH]Lys-Ser-Pheψ[CH2NH]Leu-OH] | – | – | 3 (≈ 4.53 µM) | 8 to 16 | activity against MRSA (in words) [1]: most active; IC50 [2, 3]: 10 µg/mL (≈ 15.1 µM); MIC [2, 4]: 16 to 32 µg/mL
4 | CC(C)C[C@H](NC[C@H](Cc1ccccc1)NC(=O)[C@@H](NC(=O)[C@H](CCCCN)NC[C@@H](N)Cc1ccc2ccccc2c1)C(C)C)C(=O)O [Compound 2, H-2-Nalψ[CH2NH]Lys-Val-Pheψ[CH2NH]Leu-OH] | – | – | 69 (≈ 102 µM) | 125 to 250 | IC50 ([2]; ATCC27853, 21 h): 58 µg/mL (≈ 85.9 µM); MIC ([2]; ATCC27853, 21 h): 80 to 152 µg/mL
5 | CC(C)C[C@H](NC[C@H](Cc1ccccc1)NC(=O)[C@H](Cc1ccccc1)NC(=O)[C@H](CCCCN)NC[C@@H](N)Cc1ccc2ccccc2c1)C(=O)O [Compound 3, H-2-Nalψ[CH2NH]Lys-Phe-Pheψ[CH2NH]Leu-OH] | – | – | 19 (≈ 26.3 µM) | 125 to 150 | IC50 ([2]; ATCC27853, 21 h): 31 µg/mL (≈ 42.9 µM); MIC ([2]; ATCC27853, 21 h): 40 to 62 µg/mL
6 | CSCC[C@H](NC[C@@H](N)Cc1ccc2ccccc2c1)C(=O)N[C@@H](Cc1ccccc1)C(=O)N[C@H](CN[C@@H](CC(C)C)C(=O)O)Cc1ccccc1 [Compound 6, H-2-Nalψ[CH2NH]Met-Phe-Pheψ[CH2NH]Leu-OH] | – | – | 44 (≈ 60.6 µM) | 125 to 250 | –
7 | CC[C@H](C)[C@H](NC[C@@H](N)Cc1ccc2ccccc2c1)C(=O)N[C@@H](CO)C(=O)N[C@H](CN[C@@H](CC(C)C)C(=O)O)Cc1ccccc1 [Compound 7, H-2-Nalψ[CH2NH]Ile-Ser-Pheψ[CH2NH]Leu-OH] | – | – | 69 (≈ 107 µM) | 125 to 250 | –
8 | CC[C@H](C)[C@H](NC[C@@H](N)Cc1ccc2ccccc2c1)C(=O)N[C@H](C(=O)N[C@H](CN[C@@H](CC(C)C)C(=O)O)Cc1ccccc1)C(C)C [Compound 8, H-2-Nalψ[CH2NH]Ile-Val-Pheψ[CH2NH]Leu-OH] | – | – | 5 (≈ 7.58 µM) | 8 to 16 | –
9 | CC[C@H](C)[C@H](NC[C@@H](N)Cc1ccc2ccccc2c1)C(=O)N[C@@H](Cc1ccccc1)C(=O)N[C@H](CN[C@@H](CC(C)C)C(=O)O)Cc1ccccc1 [Compound 9, H-Nalψ[CH2NH]Ile-Phe-Pheψ[CH2NH]Leu-OH] | – | – | 9 (≈ 12.7 µM) | 16 to 32 | –
10 | CC(C)C[C@H](NC[C@H](Cc1ccccc1)NC(=O)[C@H](Cc1ccccc1)NC(=O)C(C)(C)NC[C@@H](N)Cc1ccc2ccccc2c1)C(=O)O [Compound 12, H-2-Nalψ[CH2NH]Aib-Phe-Pheψ[CH2NH]Leu-OH] | – | – | 26 (≈ 38.2 µM) | 125 to 250 | –
11 | CC(C)C[C@H](NC[C@H](Cc1ccccc1)NC(=O)C(C)(C)NC(=O)[C@H](CCCCN)NC[C@@H](N)Cc1ccc2ccccc2c1)C(=O)O [Compound 13, H-2-Nalψ[CH2NH]Lys-Aib-Pheψ[CH2NH]Leu-OH] | – | – | 54 (≈ 81.7 µM) | 125 to 250 | IC50 ([2]; ATCC27853, 21 h): 59 µg/mL (≈ 89.3 µM); MIC ([2]; ATCC27853, 21 h): 80 to 125 µg/mL; activity against Pseudomonas aeruginosa (in words) [2]: good potency
12 | CSCCC(NCC(N)Cc1ccc2ccccc2c1)C(=O)NC(C)(C)C(=O)NC(CNC(CC(C)C)C(=O)O)Cc1ccccc1 (stereo not drawn) [Compound 14, H-2-Nalψ[CH2NH]Met-Aib-Pheψ[CH2NH]Leu-OH] | – | – | 3 (≈ 4.52 µM) | 8 to 16 | activity against MRSA (in words) [1]: also active; IC50 ([2]; ATCC27853, 21 h): 20 µg/mL (≈ 30.1 µM); MIC ([2]; ATCC27853, 21 h): 31 to 62 µg/mL; activity against Pseudomonas aeruginosa (in words) [2]: good potency
13 | CC[C@H](C)[C@H](NC[C@@H](N)Cc1ccc2ccccc2c1)C(=O)NC(C)(C)C(=O)N[C@H](CN[C@@H](CC(C)C)C(=O)O)Cc1ccccc1 [Compound 15, H-2-Nalψ[CH2NH]Ile-Aib-Pheψ[CH2NH]Leu-OH] | – | – | 39 (≈ 60.4 µM) | 80 to 125 | –
14 | CCC(CC)(NC[C@@H](N)Cc1ccc2ccccc2c1)C(=O)N[C@@H](CO)C(=O)N[C@H](CN[C@@H](CC(C)C)C(=O)O)Cc1ccccc1 [Compound 16, H-2-Nalψ[CH2NH]Deg-Ser-Pheψ[CH2NH]Leu-OH] | – | – | 17 (≈ 26.2 µM) | 62 to 125 | IC50 [2, 3]: 170 µg/mL (≈ 262 µM); MIC [2, 4]: > 250 µg/mL
15 | CCC(CC)(NC[C@@H](N)Cc1ccc2ccccc2c1)C(=O)N[C@@H](Cc1ccccc1)C(=O)N[C@H](CN[C@@H](CC(C)C)C(=O)O)Cc1ccccc1 [Compound 18, H-2-Nalψ[CH2NH]Deg-Phe-Pheψ[CH2NH]Leu-OH] | – | – | 6 (≈ 8.48 µM) | 16 to 32 | –
16 | CCC(CC)(NC(=O)[C@H](CCCCN)NC[C@@H](N)Cc1ccc2ccccc2c1)C(=O)N[C@H](CN[C@@H](CC(C)C)C(=O)O)Cc1ccccc1 [Compound 19, H-2-Nalψ[CH2NH]Lys-Deg-Pheψ[CH2NH]Leu-OH] | – | – | 67 (≈ 97.2 µM) | 125 to 250 | IC50 ([2]; ATCC27853, 21 h): 143 µg/mL (≈ 208 µM); MIC ([2]; ATCC27853, 21 h): 250 to 500 µg/mL
17 | CCC(CC)(NC(=O)[C@H](CCSC)NC[C@@H](N)Cc1ccc2ccccc2c1)C(=O)N[C@H](CN[C@@H](CC(C)C)C(=O)O)Cc1ccccc1 [Compound 20, H-Nalψ[CH2NH]Met-Deg-Pheψ[CH2NH]Leu-OH] | – | – | 5 (≈ 7.23 µM) | 16 to 32 | IC50 ([2]; ATCC27853, 21 h): 64 µg/mL (≈ 92.5 µM); MIC ([2]; ATCC27853, 21 h): 80 to 125 µg/mL; activity against Pseudomonas aeruginosa (in words) [2]: good potency

Row | Compound | MRSA IC50 [1] [µg/mL] | Ps A. IC50 [2] [µg/mL] | IC50 [1] [µg/mL] | MIC [1] [µg/mL] | other results
18 | CC[C@H](C)[C@H](NC[C@@H](N)Cc1ccc2ccccc2c1)C(=O)NC(CC)(CC)C(=O)N[C@H](CN[C@@H](CC(C)C)C(=O)O)Cc1ccccc1 [Compound 21, H-2-Nalψ[CH2NH]Ile-Deg-Pheψ[CH2NH]Leu-OH] | – | – | 34 (≈ 50.4 µM) | 40 to 162 | –
19 | Ac-2-Nalψ[CH2NH]Lys-Ser-Pheψ[CH2NH]Leu-OH [Compound 24] | 60 | 180 | – | – | –
20 | Cecropin A: Cecropins are cationic linear peptides isolated from the hemolymph of the giant silk moth; insect-derived antimicrobial peptide (KWKLFKKIEKVGQNIRDGIIKAGPAVAVVGQATQIAK; ends and bridges not checked; UniProt P01507 27-63, looked up) | – | – | – | – | concentration giving total killing (Fusarium moniliforme): 12.4 µg/mL; concentration giving total killing (Fusarium oxysporum): 12.4 µg/mL
21 | H-2-Nal-Lys-Ser-Phe-Leu-OH (H-[2Nal]KSFL-OH; SMILES CC(C)C[C@H](NC(=O)[C@H](Cc1ccccc1)NC(=O)[C@H](CO)NC(=O)[C@H](CCCCN)NC(=O)[C@@H](N)Cc1ccc2ccccc2c1)C(=O)O) [Compound 26] | 184 | 388 | – | – | activity against MRSA (in words) [1]: modest activity in both assays; activity against Pseudomonas aeruginosa (in words) [2]: modest activity in both assays
22 | H-2-Nalψ[CH2NAc]Lys-Ser-Pheψ[CH2NH]Leu-OH [Compound 23] | 19.6 | 33.5 | – | – | activity against MRSA (in words) [1]: active against both; activity against Pseudomonas aeruginosa (in words) [2]: active against both
23 | H-2-Nalψ[CH2NAc]Met-Aib-Pheψ[CH2NH]Leu-OH [Compound 25] | 28.7 | > 500 | – | – | selectivity between MRSA and P. aeruginosa (in words) [1]: very selective; activity against MRSA (in words) [1]: quite active
24 | H-2-Nalψ[CH2NH]Lys(Ac)-Ser-Pheψ[CH2NH]Leu-OH [Compound 28] | 25.8 | 190 | – | – | –
25 | H-2-Nalψ[CH2NH]Lys-Ser-4-AMBψ[CH2NH]Leu-OH [Compound 36] | 37.5 | 32.2 | – | – | –
26 | H-2-Nalψ[CH2NH]Lys-Ser-Phe-Leu-OH (H-[2Nal]KSFL-OH; also: ψ[CH2NH] reduced bond between 2-Nal1 and Lys2) [Compound 27] | 37.8 | 65.4 | – | – | –
27 | H-2-Nalψ[CH2NH]Lys-Ser-Pheψ[CH2NAc]Leu-OH [Compound 30] | 26 | 50 | – | – | –
28 | H-2-Nalψ[CH2NH]Met-3-AMB-Pheψ[CH2NH]Leu-OH [Compound 34] | 47 | 230 | – | – | –
29 | H-2-Nalψ[CH2NH]Met-4-AMB-Pheψ[CH2NH]Leu-OH [Compound 33] | 17.6 | 163 | – | – | selectivity between MRSA and P. aeruginosa (in words) [1]: quite selective toward MRSA
30 | H-2-Nalψ[CH2NH]Met-Aib-Pheψ[CH2NH]Leu-NH2 [Compound 31] | 10.4 | 94 | – | – | –
31 | H-2-Nalψ[CH2NH]Nle-Aib-Pheψ[CH2NH]Leu-OH [Compound 32] | 35 | > 500 | – | – | –
32 | H-D-2-Nalψ[CH2NH]D-Lys-D-Ser-D-Pheψ[CH2NH]D-Leu-OH [Compound 29] | 18.8 | 13.9 | – | – | selectivity between MRSA and P. aeruginosa (in words) [1]: slight selectivity for the gram-negative organisms
33 | H-D-2-Nalψ[CH2NH]D-Met-Aib-D-Pheψ[CH2NH]D-Leu-OH [Compound 35] | 42.1 | 463 | – | – | –
34 | H-D-2-Nalψ[CH2NH]Lys-Ser-Pheψ[CH2NH]Leu-OH [Compound 22] | 10.9 | 9.2 | – | – | activity against MRSA (in words) [1]: active against both; activity against Pseudomonas aeruginosa (in words) [2]: active against both
